{
  "source": "patent US12138383B2",
  "about": "“Heating unit for use in a drug delivery device” (ALEXZA PHARMACEUTICALS, INC., priority 2007, dated 2024)",
  "key": {"[1]": {"experiment": "Aerosol purity of condensation aerosol vaporized from drug-coated substrate in substrate screening apparatus (HPLC of filter extract)", "format": "physicochemical", "conditions": "heat-oxidized perforated 316 stainless steel", "excerpt": "The substrate screening apparatus 400 is made of a machined plastic (polyoxymethylene, DELRIN® Acetal Resin, DuPont, Wilmington, DE) block 402 with a 2 cm^2 cross-sectional area for mounting a substrate 412. Block 402 includes a first airway 404 extending from first inlet 414 to outlet 422. Block 402 also include a second airway 406 extending from second inlet 416 to substrate 412, where it typically joins the first airway. The substrate 412 is mounted in the substrate screening apparatus 400 across two electrodes 420. A first air flow 414 is established in first airway 404 and a second air flow 416 is established in second airway 406 such that the second air flow 416 passes from the second airway 406 to first airway 404 through holes in the substrate 412. While providing air flows 414 and 416, the substrate 412 is heated, typically by discharging a capacitor (not shown) across the substrate 412. In a one embodiment, the flow of air passing through holes in the substrate 412 is in a direction orthogonal to that of air flow 414. Substrate 412 is coated with a drug composition film. The substrate 412 is heated to vaporized all or a portion of the drug composition. The vaporized drug subsequently cools and condenses to form a condensation aerosol that is carried to the outlet by air flow 414, joined by air flow 416). Accordingly, the condensation aerosol is emitted from the outlet 422.\nThe test substrates were then coated with a drug composition. The drug was typically dissolved in a volatile organic solvent (e.g., dichloromethane/methanol mixture or acetone or other suitable organic solvent) and then spray-coated onto the test substrates using an automated spray coater. Coating parameters, such as the drug concentration in the coating solution, solution flow rate, were selected to obtain a uniform drug coating of the desired coating density (i.e., mass/area).\nTotal air flow through the substrate screening apparatus was set by providing air flows 414 and 416 at a desired ratio. (As used herein, “across” air flow refers to air flow 414 and “bottom” air flow refers to air flow 416.) Brass electrodes 420 attached to the substrate screening apparatus 400 were used to clamp the substrate 412 in place and provide electrical connections. For most experiments, a 1-Farad capacitor was used as the energy source. The capacitor was typically charged to 11-14 volts, depending on the desired substrate temperature. A high current relay was used to connect the circuit and discharge the capacitor across the substrate to induce heating and vaporization of the drug.\nFIG. 5 is a schematic of another embodiment of a substrate screening apparatus 500 that was used to direct air flow through the holes of coated polyimide film (KAPTON® polyimide film) substrates (see FIGS. 2A and 2B). Substrate screening apparatus 500 is similar in configuration and operation to substrate screening apparatus 400, with the exception that substrate screening apparatus 500 includes two electrodes 502 on the same side of the screening apparatus 500, whereas substrate screening apparatus 400 includes two electrodes 420 on opposite sides of the screening apparatus 400. In the examples using polyimide film substrates described below, a polyimide film substrate coated with a drug composition was placed in substrate screening apparatus 500 across electrodes 502. A computer-controlled power supply was connected to the electrodes. The power supply was typically capable of heating the polyimide film substrate to the target temperature within 300 milliseconds, and the substrate was kept at the target temperature for a duration of 1 second.\nTo determine aerosol purity and emitted dose, a 2 μm Teflon filter (ZEFLUOR PTFE filters, available from Zefon International, Inc., Ocala, FL) was placed immediately downstream from the screening apparatus during aerosol generation. […]"}, "[2]": {"experiment": "Aerosol particle size distribution by Anderson Cascade Impactor", "format": "physicochemical", "conditions": "heat-oxidized perforated 316 stainless steel; for Average MMAD (μm): 28.3 liters/minute; for GSD / MMAD (μm): approx. 0.07 mg/cm^2, 28.3 liters/minute", "excerpt": "An Anderson Cascade Impactor (ACI), an inertial impaction size separating device, was used to determine the particle size distribution of the aerosol. The ACI consists of several stages, with each successive stage having a smaller size cutoff. By extracting and determining the mass of drug deposited at each stage, it is possible to estimate the particle size distribution of the aerosol. The ACI was placed immediately downstream from the screening apparatus. Again, the airway and substrate were extracted to determine the mass balance for each actuation of the device."}},
  "data": [
    {"smiles": "CCCCNc1cc(C(=O)O)cc(S(N)(=O)=O)c1Oc1ccccc1", "note": "[Bumetanide, bumetanide]", "values": [
      {"measurement": "aerosol purity", "setting": "[1]; 0.07 mg/cm^2, 20 liters/minute, as little as 5% of air flow through the substrate", "result": 98, "unit": "%"},
      {"measurement": "Emitted Aerosol Purity (%)", "setting": "[1]; 20 liters/minute, across:bottom 0:100", "result": 98.5, "unit": "%"},
      {"measurement": "aerosol purity", "setting": "[1]; 20 liters/minute, across:bottom 0:100, coating density 0.08 mg/cm^2", "result": "99.3 ± 0.1"},
      {"measurement": "Mean Aerosol Purity (%)", "setting": "[1]; 20 liters/minute, across:bottom 0:100, coating density 0.10 mg/cm^2", "result": 98.8, "unit": "%"},
      {"measurement": "Mean Aerosol Purity (%)", "setting": "[1]; 20 liters/minute, across:bottom 0:100, coating density 0.14 mg/cm^2", "result": 98.8, "unit": "%"},
      {"measurement": "aerosol purity", "setting": "[1]; 20 liters/minute, across:bottom 0:100, coating density 0.26 mg/cm^2", "result": "98.9 ± 0.1"},
      {"measurement": "aerosol purity", "setting": "[1]; 20 liters/minute, across:bottom 0:100, coating density 0.58 mg/cm^2", "result": "98.7 ± 0.3"},
      {"measurement": "Emitted Aerosol Purity (%)", "setting": "[1]; 20 liters/minute, across:bottom 50:50", "result": 98.4, "unit": "%"},
      {"measurement": "Mean Aerosol Purity (%)", "setting": "[1]; 20 liters/minute, across:bottom 50:50, coating density 0.10 mg/cm^2", "result": 98.8, "unit": "%"},
      {"measurement": "Mean Aerosol Purity (%)", "setting": "[1]; 20 liters/minute, across:bottom 50:50, coating density 0.14 mg/cm^2", "result": 98.9, "unit": "%"},
      {"measurement": "aerosol purity", "setting": "[1]; 20 liters/minute, across:bottom 90:10, coating density 0.08 mg/cm^2", "result": "99.2 ± 0.1"},
      {"measurement": "aerosol purity", "setting": "[1]; 20 liters/minute, across:bottom 90:10, coating density 0.26 mg/cm^2", "result": "98.6 ± 0.1"},
      {"measurement": "aerosol purity", "setting": "[1]; 20 liters/minute, across:bottom 90:10, coating density 0.58 mg/cm^2", "result": "98.4 ± 0.3"},
      {"measurement": "Emitted Aerosol Purity (%)", "setting": "[1]; 20 liters/minute, across:bottom 100:0", "result": 96.4, "unit": "%"},
      {"measurement": "aerosol purity", "setting": "[1]; 20 liters/minute, across:bottom 100:0, coating density 0.08 mg/cm^2", "result": "95.8 ± 0.6"},
      {"measurement": "Mean Aerosol Purity (%)", "setting": "[1]; 20 liters/minute, across:bottom 100:0, coating density 0.10 mg/cm^2", "result": 95.7, "unit": "%"},
      {"measurement": "Mean Aerosol Purity (%)", "setting": "[1]; 20 liters/minute, across:bottom 100:0, coating density 0.14 mg/cm^2", "result": 94.8, "unit": "%"},
      {"measurement": "aerosol purity", "setting": "[1]; 20 liters/minute, across:bottom 100:0, coating density 0.26 mg/cm^2", "result": "94.8 ± 0.2"},
      {"measurement": "aerosol purity", "setting": "[1]; 20 liters/minute, across:bottom 100:0, coating density 0.58 mg/cm^2", "result": "90.7 ± 0.4"},
      {"measurement": "Average MMAD (μm)", "setting": "[2]; coating density 0.08 mg/cm^2, across:bottom 90:10", "result": 2.2, "unit": "μm"},
      {"measurement": "Average MMAD (μm)", "setting": "[2]; coating density 0.26 mg/cm^2, across:bottom 90:10", "result": 1.6, "unit": "μm"},
      {"measurement": "Average MMAD (μm)", "setting": "[2]; coating density 0.58 mg/cm^2, across:bottom 0:100", "result": 0.9, "unit": "μm"},
      {"measurement": "Average MMAD (μm)", "setting": "[2]; coating density 0.58 mg/cm^2, across:bottom 90:10", "result": 1.9, "unit": "μm"},
      {"measurement": "Average MMAD (μm)", "setting": "[2]; coating density 0.58 mg/cm^2, across:bottom 100:0", "result": 1.7, "unit": "μm"},
      {"measurement": "GSD", "setting": "[2]; across:bottom 0:100", "result": "2.4 ± 0.1"},
      {"measurement": "MMAD (μm)", "setting": "[2]; across:bottom 0:100", "result": "0.4 ± 0.0", "unit": "μm"},
      {"measurement": "GSD", "setting": "[2]; across:bottom 90:10", "result": "2.0 ± 0.1"},
      {"measurement": "MMAD (μm)", "setting": "[2]; across:bottom 90:10", "result": "2.7 ± 0.1", "unit": "μm"},
      {"measurement": "GSD", "setting": "[2]; across:bottom 100:0", "result": "4.0 ± 0.5"},
      {"measurement": "MMAD (μm)", "setting": "[2]; across:bottom 100:0", "result": "3.6 ± 0.5", "unit": "μm"}
    ]}
  ]
}
